Test results taken from patent US20190144423A1, “AMIDE-SUBSTITUTED PYRIDINYLTRIAZOLE DERIVATIVES AND USES THEREOF” (BAYER PHARMA AKTIENGESELLSCHAFT, priority 2016, published 2019).

How the values were obtained:
human V1a receptor = molecular target: T1, human V1a receptor (Homo sapiens, UniProt P37288); experiment: Cellular in vitro assay for determining vasopressin receptor activity (V1a cell line, aequorin luminescence); assay type: cell-based; conditions: Table 1A, compounds of the invention; for IC50: CHO cell line transfected with human V1a receptor, antagonism of [Arg8]-vasopressin at EC50, read-out: IC50 hV1a; for ratio IC50 hV2/hV1a: selectivity ratio
T1 construct: expressed in transfected cells; host or cells: CHO K1 (ATCC), also stably transfected with a modified aequorin
Procedure: (§1) B-1. Cellular In Vitro Assay for Determining Vasopressin Receptor Activity
(§2) The identification of agonists and antagonists of the V1a and V2 vasopressin receptors from humans, rats and dogs as well as the quantification of the activity of the compounds of the invention is carried out using recombinant cell lines. These cell lines originally derive from a hamster's ovary epithelial cell (Chinese Hamster Ovary, CHO K1, ATCC: American Type Culture Collection, Manassas, Va. 20108, USA). The test cell lines constitutively express the human, rat or dog V1a or V2 receptors. In case of the Gαq-coupled V1a receptors, cells are also stably transfected with a modified form of the calcium-sensitive photoproteins aequorin (human and rat V1a) or obelin (dog V1a), which, after reconstitution with the cofactor coelenterazine, emit light when there are increases in free calcium concentrations [Rizzuto R, Simpson A W, Brini M, Pozzan T, Nature 358, 325-327 (1992); Illarionov B A, Bondar V S, Illarionova V A, Vysotski E S, Gene 153 (2), 273-274 (1995)]. The resulting vasopressin receptor cells react to stimulation of the recombinantly expressed V1a receptors by intracellular release of calcium ions, which can be quantified by the resulting photoprotein luminescence. The Gs-coupled V2 receptors are stably transfected into cell lines expressing the gene for firefly luciferase under control of a CRE-responsible promoter. Activation of V2 receptors induces the activation of the CRE-responsive promoter via cAMP increase, thereby inducing the expression of firefly luciferase. The light emitted by photoproteins of V1a cell lines as well as the light emitted by firefly luciferase of V2 cell lines corresponds to the activation or inhibition of the respective vasopressin receptor. The bioluminescence of the cell lines is detected using a suitable luminometer [Milligan G, Marshall F, Rees S, Trends in Pharmacological Sciences 17, 235-237 (1996)].
Vasopressin V1a Receptor Cell Lines:
On the day before the assay, the cells are plated out in culture medium (DMEM/F12, 2% FCS, 2 mM glutamine, 10 mM HEPES, 5 μg/ml coelenterazine) in 384-well microtiter plates and kept in a cell incubator (96% humidity, 5% v/v CO2, 37° C.). On the day of the assay, test compounds in various concentrations are placed for 10 minutes in the wells of the microtiter plate before the agonist [Arg^8]-vasopressin at EC50 concentration is added. The resulting light signal is measured immediately in a luminometer.
(§3) Table 1A below lists individual IC50 values for the compounds of the invention (including racemic mixtures as well as separated enantiomers) that were obtained from cell lines transfected with the human V1a or V2 receptor: […]

human V2 receptor = molecular target: T2, human V2 receptor (Homo sapiens, UniProt P30518); experiment: Cellular in vitro assay for determining vasopressin receptor activity (V2 cell line, CRE-luciferase); assay type: cell-based; conditions: CHO cell line transfected with human V2 receptor; antagonism of [Arg8]-vasopressin at EC50; Table 1A, compounds of the invention; read-out: IC50 hV2
T2 construct: expressed in transfected cells; host or cells: CHO K1 (ATCC) line expressing firefly luciferase under a CRE-responsive promoter
Procedure: as §1, §2
Vasopressin V2 Receptor Cell Lines:
On the day before the assay, the cells are plated out in culture medium (DMEM/F12, 2% FCS, 2 mM glutamine, 10 mM HEPES) in 384-well microtiter plates and kept in a cell incubator (96% humidity, 5% v/v CO2, 37° C.). On the day of the assay, test compounds in various concentrations and the agonist [Arg^s]-vasopressin at EC50 concentration are added together to the wells, and plates are incubated for 3 hours in a cell incubator. Upon addition of the cell lysis reagent Triton™ and the substrate luciferin, luminescence of firefly luciferase is measured in a luminometer.
as §3

T2 sequence (P30518 whole entry): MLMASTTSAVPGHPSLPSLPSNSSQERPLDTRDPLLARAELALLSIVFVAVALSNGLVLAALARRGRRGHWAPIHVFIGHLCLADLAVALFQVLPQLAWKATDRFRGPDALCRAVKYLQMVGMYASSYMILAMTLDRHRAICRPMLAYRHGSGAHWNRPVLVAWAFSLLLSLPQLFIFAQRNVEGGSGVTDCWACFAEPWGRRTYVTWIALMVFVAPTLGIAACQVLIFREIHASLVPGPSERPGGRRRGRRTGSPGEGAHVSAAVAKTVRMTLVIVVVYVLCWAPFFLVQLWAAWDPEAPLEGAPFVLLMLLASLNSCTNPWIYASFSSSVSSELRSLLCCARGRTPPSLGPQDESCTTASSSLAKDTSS
T1 sequence (P37288 whole entry): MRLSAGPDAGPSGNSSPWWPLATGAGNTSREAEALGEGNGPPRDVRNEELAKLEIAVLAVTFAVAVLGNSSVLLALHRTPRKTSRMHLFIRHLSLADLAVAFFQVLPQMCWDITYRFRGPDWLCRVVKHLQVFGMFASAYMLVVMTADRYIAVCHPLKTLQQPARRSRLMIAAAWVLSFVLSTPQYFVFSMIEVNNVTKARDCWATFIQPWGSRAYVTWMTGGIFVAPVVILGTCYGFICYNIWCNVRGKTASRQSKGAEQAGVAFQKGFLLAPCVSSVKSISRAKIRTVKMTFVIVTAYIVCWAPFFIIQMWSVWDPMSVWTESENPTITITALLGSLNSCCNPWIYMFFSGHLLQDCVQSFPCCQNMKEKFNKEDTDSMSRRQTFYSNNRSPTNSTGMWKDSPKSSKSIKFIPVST

Row | Structure (SMILES) | IC50 (human V1a receptor) | IC50 (human V2 receptor) | ratio IC50 hV2/hV1a (human V1a receptor)
1 | NC(=O)c1nc(Cn2nc(-c3ccc(Cl)cc3)n(C[C@H](O)C(F)(F)F)c2=O)nn1-c1ncccc1OC(F)(F)F [Example 3, 3-({3-(4-Chlorophenyl)-5-oxo-4-[(2S)-3,3,3-trifluoro-2-hydroxypropyl]-4,5-dihydro-1H-1,2,4-triazol-1-yl}methyl)-1-[3-(trifluoromethoxy)pyridin-2-yl]-1H-1,2,4-triazole-5-carboxamide] | 16 nM | 875 nM | 
2 | CCOC(=O)c1cccnc1-n1nc(Cn2nc(-c3ccc(Cl)cc3)n(C[C@H](O)C(F)(F)F)c2=O)nc1C(N)=O [Example 5, Ethyl 2-[5-carbamoyl-3-({3-(4-chlorophenyl)-5-oxo-4-[(2S)-3,3,3-trifluoro-2-hydroxypropyl]-4,5-dihydro-1H-1,2,4-triazol-1-yl}methyl)-1H-1,2,4-triazol-1-yl]nicotinate] | 14.5 nM | 1240 nM | 
3 | CCOC(=O)c1ccncc1-n1nc(Cn2nc(-c3ccc(Cl)cc3)n(C[C@H](O)C(F)(F)F)c2=O)nc1C(N)=O [Example 8, Ethyl 3-[5-carbamoyl-3-({3-(4-chlorophenyl)-5-oxo-4-[(2S)-3,3,3-trifluoro-2-hydroxypropyl]-4,5-dihydro-1H-1,2,4-triazol-1-yl}methyl)-1H-1,2,4-triazol-1-yl]isonicotinate] | 25.5 nM | 892 nM | 35.0
4 | NC(=O)c1cccnc1-n1nc(Cn2nc(-c3ccc(Cl)cc3)n(C[C@H](O)C(F)(F)F)c2=O)nc1C(N)=O [Example 9, 2-[5-carbamoyl-3-({3-(4-chlorophenyl)-5-oxo-4-[(2S)-3,3,3-trifluoro-2-hydroxypropyl]-4,5-dihydro-1H-1,2,4-triazol-1-yl}methyl)-1H-1,2,4-triazol-1-yl]nicotinamide] | 75 nM | 2250 nM | 30.0
5 | NC(=O)c1nc(Cn2nc(-c3ccc(Cl)cc3)n(C[C@@H](O)C(F)(F)F)c2=O)nn1-c1ncccc1Cl [Example 10, 3-({3-(4-Chlorophenyl)-5-oxo-4-[(2R)-3,3,3-trifluoro-2-hydroxypropyl]-4,5-dihydro-1H-1,2,4-triazol-1-yl}methyl)-1-(3-chloropyridin-2-yl)-1H-1,2,4-triazole-5-carboxamide] | 6.8 nM | 790 nM | 
6 | NC(=O)c1nc(Cn2nc(-c3ccc(Cl)cc3)n(C[C@@H](O)C(F)(F)F)c2=O)nn1-c1ncccc1C(F)(F)F [Example 11, 3-({3-(4-Chlorophenyl)-5-oxo-4-[(2R)-3,3,3-trifluoro-2-hydroxypropyl]-4,5-dihydro-1H-1,2,4-triazol-1-yl}methyl)-1-[3-(trifluoromethyl)pyridin-2-yl]-1H-1,2,4-triazole-5-carboxamide] | 3.1 nM | 610 nM | 
7 | NC(=O)c1nc(Cn2nc(-c3ccc(Cl)cc3)n(C[C@@H](O)C(F)(F)F)c2=O)nn1-c1cnccc1Cl [Example 12, 3-({3-(4-Chlorophenyl)-5-oxo-4-[(2R)-3,3,3-trifluoro-2-hydroxypropyl]-4,5-dihydro-H-1,2,4-triazol-1-yl}methyl)-1-(4-chloropyridin-3-yl)-1H-1,2,4-triazole-5-carboxamide] | 3.45 nM | 860 nM | 
8 | NC(=O)c1nc(Cn2nc(-c3ccc(Cl)cc3)n(CC(=O)C(F)(F)F)c2=O)nn1-c1ncccc1Cl [Example 14, 3-{[3-(4-Chlorophenyl)-5-oxo-4-(3,3,3-trifluoro-2-oxopropyl)-4,5-dihydro-H-1,2,4-triazol-1-yl]methyl}-1-(3-chloropyridin-2-yl)-1H-1,2,4-triazole-5-carboxamide] | 5.2 nM | 104 nM | 20.0
9 | NC(=O)c1nc(Cn2nc(-c3ccc(Cl)cc3)n(CC(=O)C(F)(F)F)c2=O)nn1-c1ncccc1Br [Example 15, 1-(3-Bromopyridin-2-yl)-3-{[3-(4-chlorophenyl)-5-oxo-4-(3,3,3-trifluoro-2-oxopropyl)-4,5-dihydro-1H-1,2,4-triazol-1-yl]methyl}-1H-1,2,4-triazole-5-carboxamide] | 13.5 nM | 637 nM | 
10 | NC(=O)c1nc(Cn2nc(-c3ccc(Cl)cc3)n(CC(=O)C(F)(F)F)c2=O)nn1-c1ncccc1C(F)(F)F [Example 17, 3-{[3-(4-Chlorophenyl)-5-oxo-4-(3,3,3-trifluoro-2-oxopropyl)-4,5-dihydro-H-1,2,4-triazol-1-yl]methyl}-1-[3-(trifluoromethyl)pyridin-2-yl]-1H-1,2,4-triazole-5-carboxamide] |  |  | 66.0

Results, then the compound that gave them:

Row | IC50 (human V1a receptor) | IC50 (human V2 receptor) | ratio IC50 hV2/hV1a (human V1a receptor) | Structure (SMILES)
11 | 1.02 nM | 39 nM |  | NC(=O)c1nc(Cn2nc(-c3ccc(Cl)cc3)n(C[C@H](O)C(F)(F)F)c2=O)nn1-c1ncccc1Cl [Example 1, 3-({3-(4-Chlorophenyl)-5-oxo-4-[(2S)-3,3,3-trifluoro-2-hydroxypropyl]-4,5-dihydro-1H-1,2,4-triazol-1-yl}methyl)-1-(3-chloropyridin-2-yl)-1H-1,2,4-triazole-5-carboxamide]
12 | 1.2 nM | 170 nM |  | NC(=O)c1nc(Cn2nc(-c3ccc(Cl)cc3)n(C[C@H](O)C(F)(F)F)c2=O)nn1-c1ncccc1C(F)(F)F [Example 2, 3-({3-(4-Chlorophenyl)-5-oxo-4-[(2S)-3,3,3-trifluoro-2-hydroxypropyl]-4,5-dihydro-1H-1,2,4-triazol-1-yl}methyl)-1-[3-(trifluoromethyl)pyridin-2-yl]-1H-1,2,4-triazole-5-carboxamide]
13 | 1.23 nM | 89.3 nM |  | NC(=O)c1nc(Cn2nc(-c3ccc(Cl)cc3)n(C[C@H](O)C(F)(F)F)c2=O)nn1-c1ncccc1Br [Example 4, 1-(3-Bromopyridin-2-yl)-3-({3-(4-chlorophenyl)-5-oxo-4-[(2S)-3,3,3-trifluoro-2-hydroxypropyl]-4,5-dihydro-1H-1,2,4-triazol-1-yl}methyl)-1H-1,2,4-triazole-5-carboxamide]
14 | 0.57 nM | 25 nM |  | NC(=O)c1nc(Cn2nc(-c3ccc(Cl)cc3)n(C[C@H](O)C(F)(F)F)c2=O)nn1-c1cnccc1Cl [Example 6, 3-({3-(4-Chlorophenyl)-5-oxo-4-[(2S)-3,3,3-trifluoro-2-hydroxypropyl]-4,5-dihydro-1H-1,2,4-triazol-1-yl}methyl)-1-(4-chloropyridin-3-yl)-1H-1,2,4-triazole-5-carboxamide]
15 | 2.5 nM | 293 nM |  | NC(=O)c1nc(Cn2nc(-c3ccc(Cl)cc3)n(C[C@H](O)C(F)(F)F)c2=O)nn1-c1cnccc1C(F)(F)F [Example 7, 3-({3-(4-Chlorophenyl)-5-oxo-4-[(2S)-3,3,3-trifluoro-2-hydroxypropyl]-4,5-dihydro-1H-1,2,4-triazol-1-yl}methyl)-1-[4-(trifluoromethyl)pyridin-3-yl]-1H-1,2,4-triazole-5-carboxamide]
16 | 1.6 nM | 690 nM |  | NC(=O)c1nc(Cn2nc(-c3ccc(Cl)cc3)n(C[C@@H](O)C(F)(F)F)c2=O)nn1-c1cnccc1C(F)(F)F [Example 13, 3-({3-(4-Chlorophenyl)-5-oxo-4-[(2R)-3,3,3-trifluoro-2-hydroxypropyl]-4,5-dihydro-H-1,2,4-triazol-1-yl}methyl)-1-[4-(trifluoromethyl)pyridin-3-yl]-1H-1,2,4-triazole-5-carboxamide]
17 | 1.4 nM | 75 nM |  | NC(=O)c1nc(Cn2nc(-c3ccc(Cl)cc3)n(CC(=O)C(F)(F)F)c2=O)nn1-c1cnccc1Cl [Example 16, 3-{[3-(4-Chlorophenyl)-5-oxo-4-(3,3,3-trifluoro-2-oxopropyl)-4,5-dihydro-1H-1,2,4-triazol-1-yl]methyl}-1-(4-chloropyridin-3-yl)-1H-1,2,4-triazole-5-carboxamide]
